Measured values reported in US8969395B2, “Triterpenoid derivatives useful as antiproliferative agents” (Universidade de Coimbra, priority 2009, dated 2015).

Key:
Assay type in all cases: cell-based
[1] = tested on: HepG2 (human hepatocellular carcinoma); assay: Cytotoxic activity, MTT assay, HepG2; conditions: 72 h, mean ±SD
Procedure, shortened: (§1)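 HepG2, HeLa and Chang liver cells (8×10^3, 1×10^3, 5×10^3 cells/well) pre-grown 24 h, treated 72 h in triplicate (DMSO <0.1%), MTT 0.5 mg/ml 1 h, read 550 nm. Jurkat (5.5×10^3 cells/well) treated 72 h, XTT 4 h, read 450 nm. IC50 as mean±SD of at least three experiments.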

[2] = tested on: Jurkat (human leukemia); assay: Cytotoxic activity, XTT assay, Jurkat; conditions: 72 h, mean ±SD
Procedure, shortened: as §1

[3] = tested on: HeLa (human cervical adenocarcinoma); assay: Cytotoxic activity, MTT assay, HeLa; conditions: 72 h, mean ±SD
[4] = tested on: HT-29 (human colon adenocarcinoma); assay: Cytotoxic activity, HT-29; conditions: mean ±SD
Procedure: Compounds presented in Table 6 were also tested in the following cell lines: PC-3 (human prostate adenocarcinoma), LNCaP (human prostate adenocarcinoma), LAPC4 (human prostate adenocarcinoma) and HT-29 (human colon adenocarcinoma).

Row | Compound | IC50 [1] | IC50 [2] | IC50 [3] | IC50 [4]
1 | C=C(C)[C@@H]1CC[C@]2(C(=O)O)CC[C@]3(C)[C@H](CC[C@@H]4[C@@]5(C)C=C(OC(=O)n6ccnc6C)C(=O)C(C)(C)[C@@H]5CC[C@]43C)[C@@H]12 [Compound 50, 2-(2′-methyl-1H-imidazole-1-carbonyloxy)-3-oxolup-1,20(29)-dien-28-oic acid] | 6.8 ± 1.5 µM | 12.5 ± 1.2 µM | 10.6 ± 0.7 µM | 9 ± 1.7 µM
2 | Cc1nccn1C(=O)OC[C@]12CC[C@@H]([C@@H](C)C=O)C1[C@H]1CC[C@@H]3[C@@]4(C)CC[C@H](O)C(C)(C)[C@@H]4CC[C@@]3(C)[C@]1(C)CC2 (stereo partly drawn) [Compound 42, 3β-hydroxy-(20R)-lupan-29-oxo-28-yl-2′-methyl-1H-imidazole-1-carboxylate] | 14.3 ± 2.4 µM | 21.3 ± 4.1 µM | 16.6 ± 1.5 µM | 15.8 ± 1.7 µM
3 | C=C(C)[C@@H]1CC[C@]2(C(=O)OC)CC[C@]3(C)[C@H](CC[C@@H]4[C@@]5(C)CC[C@H](OC(=O)n6ccnc6C)C(C)(C)[C@@H]5CC[C@]43C)[C@@H]12 [Compound 34, Methyl 3β-(2′-methyl-1H-imidazole-1-carbonyloxy)-lup-20(29)-en-28-oate] | 13.4 ± 1.7 µM | 16.4 ± 2.4 µM | 13.4 ± 1.7 µM | 12.9 ± 0.5 µM
4 | C=C(COC)[C@@H]1CC[C@]2(COC(=O)n3ccnc3C)CC[C@]3(C)[C@H](CC[C@@H]4[C@@]5(C)CC[C@H](O)C(C)(C)[C@@H]5CC[C@]43C)[C@@H]12 [Compound 36, 3β-hydroxy-30-methoxylup-20(29)-en-28-yl-2′-methyl-1H-imidazole-1-carboxylate] | 14.4 ± 1.3 µM | 24.8 ± 4.7 µM | 8.9 ± 2.1 µM | 10.4 ± 1.6 µM
5 | C=C(C)[C@@H]1CC[C@]2(C(=O)n3ccnc3C)CC[C@]3(C)[C@H](CC[C@@H]4[C@@]5(C)CCC(=O)C(C)(C)[C@@H]5CC[C@]43C)[C@@H]12 [Compound 45, 28-(2′-methyl-1H-imidazol-1-yl)-lup-20(29)-en-3,28-dione] | 5.5 ± 1.1 µM | 9.3 ± 2.2 µM | 4.2 ± 1.2 µM | 4.7 ± 1.1 µM
